Consider 5 compounds from patent US9943082B2, “Ternary fungicidal mixtures” (BAYER CROPSCIENCE AG, priority 2012, dated 2018).

For this experiment, the system named is Puccinia triticina. The experiment in a line: Puccinia triticina test (wheat)/preventive. In kind it is in vivo. To be noted: preventive spray, evaluated 8 days after inoculation. The protocol: To produce a suitable preparation of active compound, 1 part by weight of active compound or active compound combination is mixed with the stated amounts of solvent and emulsifier, and the concentrate is diluted with water to the desired concentration.
To test for preventive activity, young plants are sprayed with the preparation of active compound or active compound combination at the stated rate of application.
After the spray coating has been dried, the plants are sprayed with a spore suspension of Puccinia triticina. The plants remain for 48 hours in an incubation cabinet at approximately 20° C. and a relative atmospheric humidity of approximately 100%.
The plants are placed in the greenhouse at a temperature of approximately 20° C. and a relative atmospheric humidity of approximately 80%.
The test is evaluated 8 days after the inoculation. 0% means an efficacy which corresponds to that of the untreated control, while an efficacy of 100% means that no disease is observed.

SMILES strings stand for the structures.

Take `CC1CC(C)(C)c2cccc(NC(=O)c3cn(C)nc3C(F)F)c21` (centres unmarked) [(I-1), 3-(difluoromethyl)-1-methyl-N-(1,1,3-trimethyl-2,3-dihydro-1H-inden-4-yl)-1H-pyrazole-4-carboxamide]: the “Efficacy in % found” value (30 ppm a.i.) was determined as 78%. For `OC(Cc1ccccc1Cl)(Cn1nc[nH]c1=S)C1(Cl)CC1` (centres unmarked) [2.23 prothioconazole, prothioconazole], under “20 ppm a.i.”, the “Efficacy in % found” value turned out to be 0%. For `COC(=O)N(OC)c1ccccc1COc1ccn(-c2ccc(Cl)cc2)n1` [3.14 pyraclostrobin, pyraclostrobin], where the note is “10 ppm a.i.”, the “Efficacy in % found” value was determined as 22%. Same read-out and setting: the value for `CO/C=C(/C(=O)OC)c1ccccc1Oc1cc(Oc2ccccc2C#N)ncn1` [3.2 azoxystrobin, azoxystrobin] was 78%.

In the case of `CON=C(C(=O)OC)c1ccccc1CON=C(C)c1cccc(C(F)(F)F)c1` [3.15 trifloxystrobin, trifloxystrobin], under “10 ppm a.i.”, the “Efficacy in % found” value was 33%.
